According to patent US20040186021A1, “Substituted benzo-nitro-heterocycles” (priority 2001, published 2004):

Columns and labels:
[1] = logP determination by HPLC (reversed-phase column C 18), EC Directive 79/831 Annex V.A8; format: physicochemical; settings: for chromatographic logP: reversed-phase HPLC column (C 18), at pH=2; for logP a): acetonitrile, 43° C.
Protocol: LogP values given in Table 1 were determined in accordance with EC Directive 79/831 Annex V.A8 by HPLC (High Performance Liquid Chromatography) using a reversed-phase column (C 18). Temperature: 43° C. (a) Mobile phases for the determination in the acidic range: 0.1% aqueous phosphoric acid, acetonitrile; linear gradient from 10% acetonitrile to 90% acetonitrile—the corresponding measurement results in Table 1 are marked ^a). (b) Mobile phases for the determination in the neutral range: 0.01 molar aqueous phosphate buffer solution, acetonitrile; linear gradient from 10% acetonitrile to 90% acetonitrile—the corresponding measurement results in Table 1 are marked ^b). Calibration was carried out using unbranched alkan-2-ones (having 3 to 16 carbon atoms) with known logP values (determination of the logP values by the retention times using linear interpolation between two successive alkanones).

weeds [2] = test: Post-emergence test (Example B); format: in vivo; settings: test plants of 5-15 cm sprayed, rated after three weeks
Protocol: To produce a suitable preparation of active compound, one part by weight of active compound is mixed with the stated amount of solvent, the stated amount of emulsifier is added and the concentrate is diluted with water to the desired concentration.
Test plants of a height of 5-15 cm are sprayed with the preparation of active compounds such that the particular amounts of active compounds desired are applied per unit area. The concentration of the spray liquor is chosen such that the particular amounts of active compounds desired are applied in 1000 l of water/ha.
After three weeks, the degree of damage to the plants is rated in % damage in comparison to the development of the untreated control.
0%=no effect (like untreated control)

weeds [3] = test: Pre-emergence test (Example A); format: in vivo; settings: soil sprayed 24 hours after sowing, rated after three weeks
Protocol: Pre-Emergence Test [table] To produce a suitable preparation of active compound, one part by weight of active compound is mixed with the stated amount of solvent, the stated amount of emulsifier is added and the concentrate is diluted with water to the desired concentration. Seeds of the test plants are sown in normal soil. After 24 hours, the soil is sprayed with the preparation of active compounds such that the particular amount of active compound desired is applied per unit area. The concentration of active compound in the spray liquor is chosen such that the particular amount of active compound desired is applied in 1000 litres of water per hectare. After three weeks, the degree of damage to the plants is rated in % damage in comparison to the development of untreated control. The figures denote: 0%=no effect (like untreated control) 100%=total destruction

[4] = Table 1; a) acidic range: 0.1% aqueous phosphoric acid
[5] = Table 2, compounds of formula (II); a) acidic range: 0.1% aqueous phosphoric acid

| logP a) [1, 4] | SMILES | action against weeds (degree of damage to the plants) (weeds [2]) | action against weeds (degree of damage to the plants) (weeds [3]) | further results |
| --- | --- | --- | --- | --- |
| 1.97^a) | N#CCn1c(=O)sc2cc(F)c(-n3c(=O)cc(C(F)(F)F)n(N)c3=O)cc21 [Example 4] |  |  |  |
| 2.14^a) | CCOC(=O)CN1C(=O)COc2cc(F)c(-n3c(=O)cc(C(F)(F)F)n(N)c3=O)cc21 [Example 8] | very strong action against weeds | very strong action against weeds |  |
| 2.36^a) | CC(=O)n1c(=O)sc2cc(F)c(-n3c(=O)cc(C(F)(F)F)n(N)c3=O)cc21 [Example 14] |  |  |  |
| 2.46^a) | COC(=O)C=C(CCl)n1c(=O)sc2cc(F)c(-n3c(=O)cc(C(F)(F)F)n(N)c3=O)cc21 [Example 22] |  |  |  |
| 3.17^a) | CC(C)COC(=O)n1c(=O)sc2cc(F)c(-n3c(=O)cc(C(F)(F)F)n(N)c3=O)cc21 [Example 23] |  |  |  |
| 2.98^a) | CCOC(=O)C=C(n1c(=O)sc2cc(F)c(-n3c(=O)cc(C(F)(F)F)n(N)c3=O)cc21)C(F)(F)F [Example 24] |  |  |  |
| 2.51^a) | CCOC(=O)C=CCn1c(=O)sc2cc(F)c(-n3c(=O)cc(C(F)(F)F)n(N)c3=O)cc21 [Example 25] |  |  |  |
| 2.19^a) | N#Cn1c(=O)sc2cc(F)c(-n3c(=O)cc(C(F)(F)F)n(N)c3=O)cc21 [Example 30] |  |  |  |

Second part, the compound before the results:

| SMILES | logP a) [1, 4] | action against weeds (degree of damage to the plants) (weeds [2]) | action against weeds (degree of damage to the plants) (weeds [3]) | further results |
| --- | --- | --- | --- | --- |
| O=c1[nH]c2cc(-n3c(=O)cc(C(F)(F)F)[nH]c3=O)c(F)cc2s1 [3-(6-fluoro-2,3-dihydro-2-oxo-1,3-benzothiazol-5-yl)-6-trifluoromethyl-2,4(1H,3H)-pyrimidinedione] |  |  |  | chromatographic logP [1]: 1.48 |
| CCOC(=O)CN1C(=O)COc2ccc(-n3c(=O)cc(C(F)(F)F)n(N)c3=O)cc21 [Example 1, ethyl 6-(3-amino-3,6-dihydro-2,6-dioxo-4-trifluoromethyl-1 (2H)-pyrimidynyl)-2,3-dihydro-3-oxo-4H-1,4-benzoxazine-4-acetate] |  | very strong action against weeds | very strong action against weeds | chromatographic logP [1]: 1.9 |
| CCOC(=O)n1c(=O)sc2cc(F)c(-n3c(=O)cc(C(F)(F)F)n(N)c3=O)cc21 [Example 2, ethyl 5-(3-amino-3,6-dihydro-2,6-dioxo-4-trifluoromethyl-1(2H)-pyrimidynyl)-6-fluoro-2-oxo-3(2H)-benzothiazole carboxylate] |  |  |  | chromatographic logP [1]: 2.44 |
| CS(=O)(=O)n1c(=O)sc2cc(F)c(-n3c(=O)cc(C(F)(F)F)n(N)c3=O)cc21 [Example 3, 1-amino-3-(6-fluoro-2,3-dihydro-3-methylsulphonyl-2-oxo-5-benzothiazolyl)-6-trifluoromethyl-2,4(1H,3H)-pyrimidinedione] |  |  |  | chromatographic logP [1]: 2.16 |
| N#CCN1C(=O)COc2cc(F)c(-n3c(=O)cc(C(F)(F)F)n(N)c3=O)cc21 [Example 5] | 1.83^a) | very strong action against weeds | very strong action against weeds |  |
| N#CCN1C(=O)COc2ccc(-n3c(=O)cc(C(F)(F)F)n(N)c3=O)cc21 [Example 6] | 1.57^a) | very strong action against weeds | very strong action against weeds |  |
| COC(=O)CN1C(=O)COc2cc(F)c(-n3c(=O)cc(C(F)(F)F)n(N)c3=O)cc21 [Example 7] | 1.90^a) | very strong action against weeds | very strong action against weeds |  |
| CC(C)(C)OC(=O)CN1C(=O)COc2cc(F)c(-n3c(=O)cc(C(F)(F)F)n(N)c3=O)cc21 [Example 9] | 2.60^a) | very strong action against weeds | very strong action against weeds |  |
| CC(C)OC(=O)CN1C(=O)COc2cc(F)c(-n3c(=O)cc(C(F)(F)F)n(N)c3=O)cc21 [Example 10] | 2.38^a) | very strong action against weeds | very strong action against weeds |  |
| COC(=O)CN1C(=O)COc2ccc(-n3c(=O)cc(C(F)(F)F)n(N)c3=O)cc21 [Example 11] |  | very strong action against weeds | very strong action against weeds |  |
| CC(C)OC(=O)CN1C(=O)COc2ccc(-n3c(=O)cc(C(F)(F)F)n(N)c3=O)cc21 [Example 12] | 2.14^a) | very strong action against weeds | very strong action against weeds |  |
| CC(C)(C)OC(=O)CN1C(=O)COc2ccc(-n3c(=O)cc(C(F)(F)F)n(N)c3=O)cc21 [Example 13] | 2.37^a) |  |  |  |
| Nn1c(C(F)(F)F)cc(=O)n(-c2cc3[nH]c(=O)sc3cc2F)c1=O [II-1, 1-amino-3-(6-fluoro-2,3-dihydro-2-oxo-1,3-benzothiazol-5-yl)-6-trifluoromethyl-2,4(1H,3H)-pyrimidinedione] |  |  |  | chromatographic logP [1]: 1.66 |
| Nn1c(C(F)(F)F)cc(=O)n(-c2ccc3c(c2)NC(=O)CO3)c1=O [II-2] |  |  |  | logP a) [1, 5]: logP = 1.22^a) |
| Nn1c(C(F)(F)F)cc(=O)n(-c2cc3c(cc2F)OCC(=O)N3)c1=O [II-3] |  |  |  | logP a) [1, 5]: logP = 1.57^a) |
